Several values for one entry are separate records, joined by “and”; a condition that tells them apart may be missing. Equal entries are not always repeated. Structures can show the parent of a compound that is named as a salt.
Columns and labels:
barnase [1] = target: T1, barnase (Bacillus amyloliquefaciens, UniProt P00648, H149A); details: for binding to barnase (in words): from curvature of chemical shift profiles; for mL for amide protons (1HN), mean ± standard deviation over residues: single co-solute titration up to 1 M, 5 mM acetate pH 5.8
T1 sequence (P00648 48-157 H149A): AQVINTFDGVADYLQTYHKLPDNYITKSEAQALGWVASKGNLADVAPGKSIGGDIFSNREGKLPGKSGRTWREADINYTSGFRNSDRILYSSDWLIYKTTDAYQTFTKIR
Description: (§1) For each titration point, protein 2D peak positions were measured and loaded into a database. […] We hypothesized that the hyperbolic parts indicate direct binding of the co-solute to the protein, while the linear parts represent indirect effects on the protein chemical shifts caused by interactions of the co-solute with the solvent, which thus leads to altered protein solvation. Linear changes in shift could also arise from co-solute-induced conformational changes in the protein. […] We therefore fitted the data to a sum of two equations: a hyperbolic curve plus a linear change. Fitting to the hyperbolic curve gives a resultant binding affinity, which can be tabulated as either a dissociation constant Kd (with units of concentration) or an association constant Ka (with units of reciprocal concentration). […] Thus in the analysis below, we use Ka when examining binding to the protein surface. We note that the linear change is in fact a binding curve with very weak affinity, and will therefore start to curve at some point. Based on the likely affinities, curvature is unlikely to become apparent until the co-solute reaches a concentration of several M.
(§2) For fitting shift changes to obtain the dissociation constant, one would normally use a quadratic equation[36]:1 Δδobs=Δδmax{([P]i+[L]i+Kd)–[([P]i+[L]i+Kd)^2−4[P]i[L]i]^1/2}/2[P]I
(§3) We have therefore used it throughout. The complete equation used here for fitting the experimental shift changes is therefore3 Δδobs=Δδmax.Li/Kd+Li+mLLi which gives three fitted values for each nucleus: Kd, Δδmax, and mL. mL is the gradient of the linear component, and gives information on the indirect effect of the co-solute on protein chemical shifts via its effect on solvent. […] We discuss later the significance of mL: for present purposes, it is an empirical parameter that describes how the co-solute affects the protein indirectly via solvent.
(§4) For these reasons, all experiments were carried out using 5 mM acetate, pH 5.8, conditions that gave reproducible peak positions while using only a very low concentration of additional solutes.
(§5) Chemical shifts of ^1HN, ^15N, and ^13C’ were measured and fitted to Eq. (3).

protein surfaces = details: molecular dynamics; ref Vrbka et al J Phys Chem B 2006 110:7036-7043; cited from earlier work
barnase [2] = target: T1, barnase; experiment: biochemical; details: average dissociation constant Kd at thiocyanate binding region, residues 35–46, 81–86; single binding site assumed; pH 5.8
Description: as §1, §2, §3, §4, §5

| SMILES | binding to barnase (in words) (barnase [1]) | mL for amide protons (1HN), mean ± standard deviation over residues (barnase [1]) | contact times with protein surfaces in water (protein surfaces) | Kd (barnase [2]) | average Ka (barnase [1]; average over binding-site residues 35–46 and 81–86, 1HN, 15N, 13C' nuclei) | average Ka over all nuclei (barnase [1]; osmolyte titrations, average over residues that could be fitted) |
| --- | --- | --- | --- | --- | --- | --- |
| C[N+](C)(C)[O-] [TMAO, trimethylamine N-oxide] | only very weak binding | +9.7 ± 16.9 ppb/M |  |  |  |  |
| O=S(=O)(O)O [sulfate, sodium sulfate] |  |  | 0.1-0.8 ns |  |  |  |
| N#CS [thiocyanate, sodium thiocyanate] |  | –51 ± 51 ppb/M |  | 22 mM and ~22 mM | about 45 M^−1 |  |
| CC1=N[C@H](C(=O)O)CCN1 [ectoine] | very little binding | +16.5 ± 21.3 ppb/M |  |  |  |  |
| C[N+](C)(C)CC(=O)O [betaine, N-trimethyl glycine] | no binding | +4.3 ± 15.9 ppb/M |  |  |  | no evidence of any binding |
| Cl [chloride, sodium chloride] | overall weaker binding | –16 ± 26 ppb/M | 0.1-0.8 ns |  |  |  |

— article PMC10902301, “Interactions between the protein barnase and co-solutes studied by NMR” (Communications Chemistry, 2024)
